Measurements published in ChEMBL document CHEMBL3351916, “Synthesis and cytotoxic evaluation of novel ester-triazole-linked triterpenoid-AZT conjugates” (Bioorg Med Chem Lett, 2014).

How the values were obtained:
KB = test: Cytotoxicity against human KB cells; format: functional, cell-based
HepG2 = test: Cytotoxicity against human HepG2 cells; format: functional, cell-based

C=C(C)[C@@H]1CC[C@]2(C(=O)O)CC[C@]3(C)[C@H](CC[C@@H]4[C@@]5(C)CC[C@@H](O)[C@@](C)(C(=O)O)[C@@H]5CC[C@]43C)[C@@H]12
IC50 (KB): 110 µM
IC50 (HepG2): 223 µM

C#CCOC(=O)[C@]12CC[C@@H](C(=C)C)[C@@H]1[C@H]1CC[C@@H]3[C@@]4(C)CC[C@H](O)C(C)(C)[C@@H]4CC[C@@]3(C)[C@]1(C)CC2
IC50 (KB): > 259 µM
IC50 (HepG2): 114 µM

C=C(C)[C@@H]1CC[C@]2(C(=O)O)CC[C@]3(C)[C@H](CC[C@@H]4[C@@]5(C)CCC(=O)[C@H](C)[C@@H]5CC[C@]43C)[C@@H]12
IC50 (KB): 7.7 µM
IC50 (HepG2): 11.2 µM

C#CCOC(=O)[C@]12CC[C@@H](C(=C)C)[C@@H]1[C@H]1CC[C@@H]3[C@@]4(C)CC[C@H](OC(=O)CCC(=O)O)C(C)(C)[C@@H]4CC[C@@]3(C)[C@]1(C)CC2
IC50 (KB): 22.2 µM
IC50 (HepG2): 49.9 µM

C#CCOC(=O)[C@]12CC[C@@H](C(=C)C)[C@@H]1[C@H]1CC[C@@H]3[C@@]4(C)CC[C@H](OC(=O)CCCC(=O)O)C(C)(C)[C@@H]4CC[C@@]3(C)[C@]1(C)CC2
IC50 (KB): 28.7 µM
IC50 (HepG2): 19.9 µM

C#CCOC(=O)[C@]12CC[C@@H](C(=C)C)[C@@H]1[C@H]1CC[C@@H]3[C@@]4(C)CC[C@H](OC(=O)CC(C)CC(=O)O)C(C)(C)[C@@H]4CC[C@@]3(C)[C@]1(C)CC2 (stereo partly specified)
IC50 (KB): 12.5 µM
IC50 (HepG2): 129 µM

C=C(C)[C@@H]1CC[C@]2(C(=O)OCc3cn([C@H]4C[C@H](n5cc(C)c(=O)[nH]c5=O)O[C@@H]4CO)nn3)CC[C@]3(C)[C@H](CC[C@@H]4[C@@]5(C)CC[C@H](O)C(C)(C)[C@@H]5CC[C@]43C)[C@@H]12
IC50 (KB): 5.9 µM
IC50 (HepG2): 7 µM

C=C(C)[C@@H]1CC[C@]2(C(=O)OCc3cn([C@H]4C[C@H](n5cc(C)c(=O)[nH]c5=O)O[C@@H]4CO)nn3)CC[C@]3(C)[C@H](CC[C@@H]4[C@@]5(C)CC[C@H](OC(=O)CCC(=O)O)C(C)(C)[C@@H]5CC[C@]43C)[C@@H]12
IC50 (KB): 24.7 µM
IC50 (HepG2): 20.6 µM

C=C(C)[C@@H]1CC[C@]2(C(=O)OCc3cn([C@H]4C[C@H](n5cc(C)c(=O)[nH]c5=O)O[C@@H]4CO)nn3)CC[C@]3(C)[C@H](CC[C@@H]4[C@@]5(C)CC[C@H](OC(=O)CCCC(=O)O)C(C)(C)[C@@H]5CC[C@]43C)[C@@H]12
IC50 (KB): 20.4 µM
IC50 (HepG2): 18.3 µM

C=C(C)[C@@H]1CC[C@]2(C(=O)OCc3cn([C@H]4C[C@H](n5cc(C)c(=O)[nH]c5=O)O[C@@H]4CO)nn3)CC[C@]3(C)[C@H](CC[C@@H]4[C@@]5(C)CC[C@H](OC(=O)CC(C)CC(=O)O)C(C)(C)[C@@H]5CC[C@]43C)[C@@H]12 (stereo partly specified)
IC50 (KB): 111 µM
IC50 (HepG2): 35.2 µM

Cc1cn([C@H]2C[C@H](n3cc(COC(=O)[C@]45CC[C@@H](C)[C@H](C)[C@H]4C4=CC[C@@H]6[C@@]7(C)CC[C@H](O)C(C)(C)[C@@H]7CC[C@@]6(C)[C@]4(C)CC5)nn3)[C@@H](CO)O2)c(=O)[nH]c1=O
IC50 (KB): 28.5 µM
IC50 (HepG2): 34 µM

Cc1cn([C@H]2C[C@H](n3cc(COC(=O)[C@]45CCC(C)(C)C[C@H]4C4=CC[C@@H]6[C@@]7(C)CC[C@H](O)C(C)(C)[C@@H]7CC[C@@]6(C)[C@]4(C)CC5)nn3)[C@@H](CO)O2)c(=O)[nH]c1=O
IC50 (KB): 6.3 µM
IC50 (HepG2): 7.4 µM

C#CCOC(=O)[C@]12CC[C@@H](C(=C)C)[C@@H]1[C@H]1CC[C@@H]3[C@@]4(C)CCC(=O)[C@H](C)[C@@H]4CC[C@@]3(C)[C@]1(C)CC2
IC50 (KB): > 267 µM
IC50 (HepG2): > 267 µM

C#CCOC(=O)[C@]12CC[C@@H](C(=C)C)[C@@H]1[C@H]1CC(=O)[C@@H]3[C@@]4(C)CCC(=O)[C@H](C)[C@@H]4CC[C@@]3(C)[C@]1(C)CC2
IC50 (KB): 63.9 µM
IC50 (HepG2): 59.5 µM

C=C(C)[C@@H]1CC[C@]2(C(=O)OCc3cn([C@H]4C[C@H](n5cc(C)c(=O)[nH]c5=O)O[C@@H]4CO)nn3)CC[C@]3(C)[C@H](CC[C@@H]4[C@@]5(C)CCC(=O)[C@H](C)[C@@H]5CC[C@]43C)[C@@H]12
IC50 (KB): > 172 µM
IC50 (HepG2): > 172 µM

C=C(C)[C@@H]1CC[C@]2(C(=O)OCc3cn([C@H]4C[C@H](n5cc(C)c(=O)[nH]c5=O)O[C@@H]4CO)nn3)CC[C@]3(C)[C@H](CC(=O)[C@@H]4[C@@]5(C)CCC(=O)[C@H](C)[C@@H]5CC[C@]43C)[C@@H]12
IC50 (KB): > 168 µM
IC50 (HepG2): > 168 µM

C#CCOC(=O)[C@]12CC[C@@H](C(=C)C)[C@@H]1[C@H]1CC[C@@H]3[C@@]4(C)CC[C@H](O)[C@H](C)[C@@H]4CC[C@@]3(C)[C@]1(C)CC2
IC50 (KB): 40 µM
IC50 (HepG2): 133 µM

C#CCOC(=O)[C@]12CC[C@@H](C(=C)C)[C@@H]1[C@H]1CC[C@@H]3[C@@]4(C)CC[C@H](OC(=O)CCC(=O)O)[C@H](C)[C@@H]4CC[C@@]3(C)[C@]1(C)CC2
IC50 (KB): 10.6 µM
IC50 (HepG2): 11.4 µM

C#CCOC(=O)[C@]12CC[C@@H](C(=C)C)[C@@H]1[C@H]1CC[C@@H]3[C@@]4(C)CC[C@H](OCCCC(=O)O)[C@H](C)[C@@H]4CC[C@@]3(C)[C@]1(C)CC2
IC50 (KB): 9.9 µM
IC50 (HepG2): 27.3 µM

C=C(C)[C@@H]1CC[C@]2(C(=O)OCc3cn([C@H]4C[C@H](n5cc(C)c(=O)[nH]c5=O)O[C@@H]4CO)nn3)CC[C@]3(C)[C@H](CC[C@@H]4[C@@]5(C)CC[C@H](OC(=O)CCC(=O)O)[C@H](C)[C@@H]5CC[C@]43C)[C@@H]12
IC50 (KB): 7.3 µM
IC50 (HepG2): 7.8 µM

C=C(C)[C@@H]1CC[C@]2(C(=O)OCc3cn([C@H]4C[C@H](n5cc(C)c(=O)[nH]c5=O)O[C@@H]4CO)nn3)CC[C@]3(C)[C@H](CC[C@@H]4[C@@]5(C)CC[C@H](OCCCC(=O)O)[C@H](C)[C@@H]5CC[C@]43C)[C@@H]12
IC50 (KB): > 148 µM
IC50 (HepG2): > 148 µM

C=C(C)[C@@H]1CC[C@]2(C(=O)OCc3cn([C@H]4C[C@H](n5cc(C)c(=O)[nH]c5=O)O[C@@H]4CO)nn3)CC[C@]3(C)[C@H](CC[C@@H]4[C@@]5(C)CC[C@H](O)[C@H](C)[C@@H]5CC[C@]43C)[C@@H]12
IC50 (KB): 34 µM
IC50 (HepG2): 7.3 µM

C=C(C)[C@@H]1CC[C@]2(C(=O)O)CC[C@]3(C)[C@H](C[C@@H](O)[C@@H]4[C@@]5(C)CCC(=O)[C@@H](C)[C@@H]5CC[C@]43C)[C@@H]12
IC50 (KB): 46.8 µM
IC50 (HepG2): 58 µM

C#CCOC(=O)[C@]12CC[C@@H](C(=C)C)[C@@H]1[C@H]1C[C@@H](O)[C@@H]3[C@@]4(C)CCC(=O)[C@@H](C)[C@@H]4CC[C@@]3(C)[C@]1(C)CC2
IC50 (KB): 21.9 µM
IC50 (HepG2): 39.6 µM

C=C(C)[C@@H]1CC[C@]2(C(=O)OCc3cn([C@H]4C[C@H](n5cc(C)c(=O)[nH]c5=O)O[C@@H]4CO)nn3)CC[C@]3(C)[C@H](C[C@@H](O)[C@@H]4[C@@]5(C)CCC(=O)[C@@H](C)[C@@H]5CC[C@]43C)[C@@H]12
IC50 (KB): 136 µM
IC50 (HepG2): 8.5 µM

C=C(C)[C@@H]1CC[C@]2(C(=O)O)CC[C@]3(C)[C@H](C[C@@H](O)[C@@H]4[C@@]5(C)CC[C@@H](O)[C@@](C)(C(=O)O)[C@@H]5CC[C@]43C)[C@@H]12
IC50 (KB): > 255 µM
IC50 (HepG2): > 255 µM

C#CCOC(=O)[C@]12CCC(C)(C)C[C@H]1C1=CC[C@@H]3[C@@]4(C)CC[C@H](O)C(C)(C)[C@@H]4CC[C@@]3(C)[C@]1(C)CC2 [3BETA-HYDROXY-OLEN-12-EN-28-PROPARGYLATE]
IC50 (KB): 38.4 µM
IC50 (HepG2): > 259 µM

C#CCOC(=O)[C@]12CC[C@@H](C)[C@H](C)[C@H]1C1=CC[C@@H]3[C@@]4(C)CC[C@H](O)C(C)(C)[C@@H]4CC[C@@]3(C)[C@]1(C)CC2 [3BETA-HYDROXY-URS-12-EN-28-PROPARGYLATE]
IC50 (KB): 38 µM
IC50 (HepG2): 36.5 µM

C=C(C)[C@@H]1CC[C@]2(C(=O)O)CC[C@]3(C)[C@H](CC[C@@H]4[C@@]5(C)CC[C@H](O)C(C)(C)[C@@H]5CC[C@]43C)[C@@H]12 [BETULINIC ACID]
IC50 (KB): 27.5 µM
IC50 (HepG2): 23.9 µM

Cc1c2ccncc2c(C)c2c1[nH]c1ccccc12 [ELLIPTECINE]
IC50 (KB): 1.2 µM
IC50 (HepG2): 1.2 µM

CC1(C)CC[C@]2(C(=O)O)CC[C@]3(C)C(=CC[C@@H]4[C@@]5(C)CC[C@H](O)C(C)(C)[C@@H]5CC[C@]43C)[C@@H]2C1 [OLEANOLIC_ACID]
IC50 (KB): > 280 µM
IC50 (HepG2): > 280 µM

C[C@H]1[C@H](C)CC[C@]2(C(=O)O)CC[C@]3(C)C(=CC[C@@H]4[C@@]5(C)CC[C@H](O)C(C)(C)[C@@H]5CC[C@]43C)[C@H]12 [URSOLIC ACID]
IC50 (KB): 31.5 µM
IC50 (HepG2): 42.9 µM

Cc1cn([C@H]2C[C@H](N=[N+]=[N-])[C@@H](CO)O2)c(=O)[nH]c1=O [ZIDOVUDINE]
IC50 (KB): > 479 µM
IC50 (HepG2): > 479 µM
